Assay results published in PMC9475553, “SHF Acts as a Novel Tumor Suppressor in Glioblastoma Multiforme by Disrupting STAT3 Dimerization” (Advanced Science, 2022).

Tests used:
STAT3 targeted genes = assay: qRT-PCR of STAT3 targeted genes in derived xenografts; type: in vivo, mouse; settings: 10 µg i.p. once every 2 days, n = 6, p < 0.01
Method: (§1) Figure 7 Peptide derived from the STAT3‐binding sites of SHF is an effective GBM suppressive strategy. A) Binding model between SHF and STAT3 using ZDOCK server. […] B) IF staining determined the cell penetrability and nuclear‐localization of C16. U251 cells were incubated with C16 or SC for 2 h and performed IF staining using the indicated antibodies. Bars, 10 µm. C) The statical analysis of adsorption equilibrium assay detecting the binding of C16 and SC with recombinant STAT3. D) Pull‐down assay indicating C16 binds STAT3. GST‐STAT3 was incubated with C16 or SC for 2 h, and the pull‐down assay was performed using Anti‐His magnetic beads. E) IP assay showing the effect of C16 on STAT3 dimerization. […] The relative quantification of STAT3 dimerization was listed. […] The relative quantification of STAT3/DNMT1 interaction was listed. […] The relative quantification of STAT3/DNMT1 interaction was listed. […] Positive cells were quantified 20 randomly selected fields per mouse (n = 6, Student's t‐test, **p < 0.01). […]
Total RNA was extracted using TRIzol reagent (Invitrogen) according to the manufacturer's instructions. cDNA was synthesized with the M‐MLV Reverse Transcriptase Kit (Cwbio, Beijing, China). PCR analyses were conducted to quantify mRNA expression using Real SYBR Mixture (Cwbio) on a Lightcycler 480 II instrument (Roche Applied Science). […]

[1] = system: STAT3 transcriptional activity; assay: STAT3 transcriptional reporter (SIE luciferase) assay in U87 cells; type: cell-based, human; settings: C16 for 12 h, n = 3, p < 0.01
Method: (§2) Figure 7 Peptide derived from the STAT3‐binding sites of SHF is an effective GBM suppressive strategy. A) Binding model between SHF and STAT3 using ZDOCK server. […] B) IF staining determined the cell penetrability and nuclear‐localization of C16. U251 cells were incubated with C16 or SC for 2 h and performed IF staining using the indicated antibodies. Bars, 10 µm. C) The statical analysis of adsorption equilibrium assay detecting the binding of C16 and SC with recombinant STAT3. D) Pull‐down assay indicating C16 binds STAT3. GST‐STAT3 was incubated with C16 or SC for 2 h, and the pull‐down assay was performed using Anti‐His magnetic beads. E) IP assay showing the effect of C16 on STAT3 dimerization. 293T cells transfected with indicated vectors were incubated with C16 for 2 h. The relative quantification of STAT3 dimerization was listed. F) IP assay detecting the effect of C16 on the interaction of STAT3 and DNMT1. […] The relative quantification of STAT3/DNMT1 interaction was listed. […] The relative quantification of STAT3/DNMT1 interaction was listed. […] Positive cells were quantified 20 randomly selected fields per mouse (n = 6, Student's t‐test, **p < 0.01). […]
STAT3 transcriptional activity was evaluated by a luciferase reporter system according our previously study.^[ [19] ^] […] Cells were collected, lysed, and measured using the Dual‐Glo Luciferase Assay System kit (Promega).

U87 cells = assay: Cell growth assay (CCK-8), U87; type: cell-based, human; settings: n=6
Method: Cell growth was quantified using the Cell Counting Kit‐8 Assay Kit (Bimake, Houston, TX). Each experiment was repeated at least six times. For the colony formation assay, 800 cells were seeded into each well of a six‐well plate with soft agar (Agarose; Sigma, St. Louis, MO) and maintained in a medium containing 10% FBS for 14 days. The colonies were fixed with methanol and stained with 0.1% crystal violet; the clones containing at least 50 cells were counted using an inverted microscope.
Supplementary Fig. 9 C16 inhibits tumor growth and promotes chemosensitivity in vitro.
B. Colony formation of cells treated with SC or C16 (left) and the accompanying statistical
analysis (right; n=6, Student’s t-test, **P < 0.01).
C. Annexin V staining flow cytometry assay of cells simultaneously treated with Dox with SC or
C16 for 48 h (n=3, Student’s t-test, *P < 0.05, **P < 0.01).
(1 picture or pasted object on this page, not shown here)

global DNA methylation = assay: Global DNA methylation (5-mC ELISA) assay in U87 cells; type: cell-based, human; settings: U87 cells treated with C16; n = 3, p < 0.01
Method: as §1
Global DNA methylation status was quantified by the MethylFlash Global DNA Methylation (5‐mC) ELISA Easy Kit (Epigentek, Brooklyn, NY). Levels of 5‐methylcytosine (5‐mC) were calculated according to the manufacturer's instructions. In brief, the purified and quantified genomic DNA were bound to strip‐wells treated for high DNA affinity. […]

STAT3/DNMT1 interaction = assay: IP assay: ectopic STAT3/DNMT1 interaction in 293T cells; type: cell-based, human; settings: 293T cells expressing ectopic STAT3 and DNMT1, C16 for 2 h
Method: as §2
Immunoprecipitation (IP) experiments were performed to analyze the protein interactions. […] Precipitated products were analyzed by Western blot using the specified antibodies. […]

In the case of “C16: peptide spanning SHF amino acids 388–421, palmitic acid at the N-terminus, amidated C-terminus, 3× His tags added to the C-terminal (PFSSVPEIVHHYASRKLPIKGAEHMSLLYPVAIR; palmitic acid at the N-terminus; amidated C-terminus; left off: 3× His tags, C-terminal, kept)”, the “STAT3 targeted gene expression in derived xenografts” value (STAT3 targeted genes) is reported as “significantly down‐regulated”, the STAT3 transcriptional activity [1] is reported as “significant decrease” and the cell growth inhibition (U87 cells) is reported as “inhibited cell growth with concentration dependence”. The “global DNA methylation” value (global DNA methylation) was “significant decrease” and the “ectopic STAT3/DNMT1 interaction” value (STAT3/DNMT1 interaction) was “decrease”.
